Data on nine substances can be found in patent US20120020940A1, “ANTIMICROBIAL PEPTIDES” (Helmholtz Zentrum München Deutsches Forschungszentrum Für …, priority 2008, published 2012).

No end group written: not given here.

What all share (format): cell-based
One assay deals with Botrytis cinerea. Briefly: MIC, antifungal in-vitro inhibition assay (Example 2). To be noted: Table 1. The procedure:
(§1) In-vitro inhibition assays were performed in sterile flat-bottom 96-well plates (Greiner bio-one, Frickenhausen). Antimicrobial peptides were dissolved in 0.01% acetic acid containing 0.2% BSA (500 μg/ml), filter sterilized and stored at −20° C. For inhibition assays dilutions of peptides ranging from 5 to 200 μg/ml were prepared and 10 μl (antibacterial assay) or 20 μl (antifungal assay) of each concentration was loaded per well.
(§2) Spores of fungi were collected by water washes of sporulating cultures grown on 2% malt extract agar and spore concentration was determined by microscopy. The concentration of the spores was adjusted to 1.5-2×10^3 spores/ml in 2% malt extract medium and 80 μl of fungal spores were added per well. The final peptide concentrations used in the fungal inhibition assays were […]. After overnight incubation at room temperature the plate were put on a rotary shaker (300 rpm) for further two days to ensure consistantly growth. Antifungal effects of the peptides were determined by a microplate reader (Alternaria, Fusarium) at OD590 nm or by visual screening of the plates (Botrytis, Cladosporium).
(§3) The lowest peptide concentration leading to complete inhibition of bacterial growth or spore germination/mycelial growth (minimal inhibition concentration, MIC) was determined for each organism-peptide combination. For each peptide concentration two identical inhibition assays were performed.

A further assay deals with Alternaria alternata. The description is as above. The conditions noted are these: Table 1. How it is done: as §1, §2, §3
The subject of a further assay is Cladosporium herbarum. Described as above. The conditions noted are these: Table 1. The procedure: as §1, §2, §3
Assay [1] relates to Clavibacter michiganensis. Put plainly: MIC and lethal concentration (Example 3). To be noted: Table 2; for MIC (>90% inhibition): 1-2 days at 25° C.; for LC, lethal concentration (100% inhibition): at least 4 days of incubation. How it is done:
as §1
(§4) Bacteria colonies from overnight agar plate cultures were resuspended into 5 ml LB-medium or HPG-medium (OD600 nm=0.08-0.1) and diluted into LB-medium/HPG-medium (1:100). 90 μl of this suspension containing about 10^5-10^6 CFU/ml of tested bacteria were added to each well resulting in final peptide concentrations of 0, 0.5, 1, 2, 5, 10, and 20 μg/ml. […] The lowest concentration, in which there is no observable growth (>90% inhibition) is referred to as minimal inhibitory concentration (MIC). […] For each peptide concentration two identical inhibition assays were performed.

The test system of another assay is Xanthomonas vesicatoria. Briefly: MIC and lethal concentration (Example 3). To be noted: Table 2; for MIC (>90% inhibition): 1-2 days at 25° C.; for LC, lethal concentration (100% inhibition): at least 4 days of incubation. How it is done: as §1, §4
Assay [2] has as its system Pectobacterium carotovorum. Put plainly: MIC and lethal concentration (Example 3). The conditions noted are these: Table 2; for MIC (>90% inhibition): 1-2 days at 25° C.; for LC, lethal concentration (100% inhibition): at least 4 days of incubation. The procedure:
as §1, §4

A further assay has as its system Pseudomonas corrugata. Put plainly: MIC and lethal concentration (Example 3). To be noted: Table 2; for MIC (>90% inhibition): 1-2 days at 25° C.; for LC, lethal concentration (100% inhibition): at least 4 days of incubation. The procedure: as §1, §4
The subject of assay [3] is Pseudomonas syringae pv. syringae. Briefly: MIC and lethal concentration (Example 3). The conditions noted are these: Table 2; for MIC (>90% inhibition): 1-2 days at 25° C.; for LC, lethal concentration (100% inhibition): at least 4 days of incubation. The procedure: as §1, §4
In assay [4] the test system is Pseudomonas syringae pv. tomato. Briefly: MIC and lethal concentration (Example 3). The conditions noted are these: Table 2; for MIC (>90% inhibition): 1-2 days at 25° C.; for LC, lethal concentration (100% inhibition): at least 4 days of incubation. The procedure:
as §1, §4

On to “LRALAKALKHKL-NH2 [SP11, LRALAKALKHKL -NH2]”, for which the “Minimal inhibition concentration (MIC) for complete inhibition of spore germination/mycelial growth” value is greater than 100 µg/mL in the assay on Botrytis cinerea, greater than 100 µg/mL with Alternaria alternata and 20 µg/mL in the assay with Cladosporium herbarum.

Consider LRFAKKALKKLF-NH2 [SP10-3], for which the “MIC (>90% inhibition)” value in assay [1] is 2.5/2.5 μg/ml; in the assay with Xanthomonas vesicatoria, 2.5/2.5 μg/ml; in assay [2], >10/>10 μg/ml; against Pseudomonas corrugata, 1.0 µg/mL; in assay [3], 0.25 µg/mL; in assay [4], 0.25/0.25 μg/ml. In addition, the “LC, lethal concentration (100% inhibition)” value (from here on “LC … (100% inhibition)”) is 2.5/2.5 μg/ml in assay [1]; 2.5/2.5 μg/ml in the assay on Xanthomonas vesicatoria; >10/>10 μg/ml in [2]; 2.5 µg/mL in assay [3]; 0.25/0.25 μg/ml in [4].

As to LRFARRALRRLF-NH2 [SP10-9], the “MIC (>90% inhibition)” value in assay [1] was 1.0/1.0 μg/ml; against Xanthomonas vesicatoria, 1.0 µg/mL; in [2], 2.5 µg/mL; in the assay on Pseudomonas corrugata it was 0.5 µg/mL; in assay [3] it was 0.25 µg/mL; in [4], 0.25 µg/mL. The “LC … (100% inhibition)” value in [1] was 1.0/1.0 μg/ml; in the assay on Xanthomonas vesicatoria, 2.5 µg/mL; in assay [2], 5.0 µg/mL; with Pseudomonas corrugata, 2.5 µg/mL; in [3], 2.5 µg/mL; in assay [4], 0.5 µg/mL.

For the substance LRFIKKILKKLI-NH2 [SP10-4], the “MIC (>90% inhibition)” value was 0.25/0.25 μg/ml in assay [1]; 0.1 µg/mL against Xanthomonas vesicatoria; 2.5/2.5 μg/ml in [2]; 2.5/2.5 μg/ml in the assay with Pseudomonas corrugata; 0.25 µg/mL in assay [3]; 1.0/1.0 μg/ml in assay [4]. The “LC … (100% inhibition)” value is 0.25/0.25 μg/ml in assay [1]; 0.25 µg/mL in the assay on Xanthomonas vesicatoria; 2.5/2.5 μg/ml in assay [2]; 2.5/2.5 μg/ml in the assay with Pseudomonas corrugata; 0.5 µg/mL in assay [3]; 1.0/1.0 μg/ml in assay [4].

With LRFLKKILKKLF-NH2 [SP10-1], the “MIC (>90% inhibition)” value in assay [1] is 1.0 µg/mL; with Xanthomonas vesicatoria, 2.5/2.5 μg/ml; in assay [2] it was 2.5 µg/mL; against Pseudomonas corrugata it was 2.5/2.5 μg/ml; in assay [3] it was 2.5/2.5 μg/ml; in assay [4], 1.0/1.0 μg/ml. In addition, the “LC … (100% inhibition)” value in assay [1] is 2.5 µg/mL; in the assay on Xanthomonas vesicatoria, 2.5/2.5 μg/ml; in assay [2] it was 5.0 µg/mL; with Pseudomonas corrugata, 2.5/2.5 μg/ml; in [3], 2.5/2.5 μg/ml; in [4] it was 1.0/1.0 μg/ml.

For LRFLRRILRRLL-NH2 [SP10-8], the “MIC (>90% inhibition)” value is 0.5/0.5 μg/ml in assay [1]; 0.5/0.5 μg/ml against Xanthomonas vesicatoria; 2.5 µg/mL in assay [2]; 0.5 µg/mL against Pseudomonas corrugata; 0.5/0.5 μg/ml in [3]; 1.0/1.0 μg/ml in assay [4]. In addition, the “LC … (100% inhibition)” value in assay [1] was 0.5/0.5 μg/ml; with Xanthomonas vesicatoria, 0.5/0.5 μg/ml; in assay [2], 5.0 µg/mL; in the assay on Pseudomonas corrugata it was 1.0 µg/mL; in assay [3], 0.5/0.5 μg/ml; in assay [4] it was 1.0/1.0 μg/ml.

As to LRIIKKILKKLI-NH2 [SP10-5], the “MIC (>90% inhibition)” value in assay [1] was 0.5/0.5 μg/ml; against Xanthomonas vesicatoria, 0.25 µg/mL; in [2] it was 2.5 µg/mL; against Pseudomonas corrugata it was 0.5 µg/mL; in [3] it was 0.5/0.5 μg/ml; in assay [4], 0.25 µg/mL. The “LC … (100% inhibition)” value is 0.5/0.5 μg/ml in assay [1]; 0.5 µg/mL in the assay on Xanthomonas vesicatoria; 10 µg/mL in [2]; 2.5 µg/mL in the assay on Pseudomonas corrugata; 0.5/0.5 μg/ml in assay [3]; 0.5 µg/mL in [4].

Regarding LRIIRRILRRLI-NH2 [SP10-6], the “MIC (>90% inhibition)” value was 2.5/2.5 μg/ml in assay [1]; 1.0/1.0 μg/ml in the assay on Xanthomonas vesicatoria; 2.5 µg/mL in assay [2]; 2.5/2.5 μg/ml in the assay with Pseudomonas corrugata; 2.5/2.5 μg/ml in assay [3]; 1.0/1.0 μg/ml in [4]. Besides, the “LC … (100% inhibition)” value in assay [1] is 2.5/2.5 μg/ml; with Xanthomonas vesicatoria, 1.0/1.0 μg/ml; in [2], 5.0 µg/mL; in the assay with Pseudomonas corrugata it was 2.5/2.5 μg/ml; in assay [3], 2.5/2.5 μg/ml; in [4], 1.0/1.0 μg/ml.

LRILRRLLRRLF-NH2 [SP10-7]: the “MIC (>90% inhibition)” value in [1] was 5.0/5.0 μg/ml; with Xanthomonas vesicatoria, 5.0s/5.0^ μg/ml; in assay [2], >10/>10 μg/ml; in the assay with Pseudomonas corrugata it was 2.5/2.5 μg/ml; in assay [3], >10/>10 μg/ml; in assay [4] it was 0.5 µg/mL. The “LC … (100% inhibition)” value was 5.0/5.0 μg/ml in assay [1]; 5.0s/5.0^ μg/ml with Xanthomonas vesicatoria; >10/>10 μg/ml in assay [2]; 2.5/2.5 μg/ml in the assay with Pseudomonas corrugata; >10/>10 μg/ml in [3]; 1.0 µg/mL in [4].
